Columns and labels:
[1] = Activity at NET in rat synaptosomes assessed as release of [3H]NE after 30 mins by liquid scintillation counting method; type: subcellular
Rattus norvegicus [2] = organism: Rattus norvegicus; experiment: Induction of stimulus generalization in rat trained to discriminate S(+)methamphetamine assessed as appropriate responding level to training drug by two lever method; type: functional
[3] = Displacement of [3H]DTG from sigma receptor (unknown origin); parameters: species or system Homo sapiens
Rattus norvegicus [4] = organism: Rattus norvegicus; experiment: Induction of stimulus generalization in Sprague-Dawley rat trained to discriminate AMPH assessed as appropriate responding level to training drug by two lever method; type: functional; conditions: for ED50: Rattus norvegicus, Sprague-Dawley
Rattus norvegicus [5] = organism: Rattus norvegicus; experiment: Induction of stimulus generalization in Sprague-Dawley rat trained to discriminate MDMA assessed as appropriate responding level to training drug by two lever method; type: functional; conditions: for ED50: Rattus norvegicus, Sprague-Dawley
Rattus norvegicus [6] = organism: Rattus norvegicus; experiment: Induction of stimulus generalization in Sprague-Dawley rat trained to discriminate alpha-ET assessed as appropriate responding level to training drug by two lever method; type: functional; conditions: for ED50: Rattus norvegicus, Sprague-Dawley
Rattus norvegicus [7] = organism: Rattus norvegicus; experiment: Induction of stimulus generalization in Sprague-Dawley rat trained to discriminate S(+)AMPH assessed as appropriate responding level to training drug by two lever method; type: functional
Rattus norvegicus [8] = organism: Rattus norvegicus; experiment: Induction of stimulus generalization in Sprague-Dawley rat trained to discriminate S(-)MCAT assessed as appropriate responding level to training drug by two lever method; type: functional
Rattus norvegicus [9] = organism: Rattus norvegicus; experiment: Induction of stimulus generalization in Sprague-Dawley rat trained to discriminate rac-cathinone assessed as appropriate responding level to training drug by two lever method; type: functional
Rattus norvegicus [10] = organism: Rattus norvegicus; experiment: Induction of stimulus generalization in rat trained to discriminate (+)amphetamine assessed as appropriate responding level to training drug by two lever method; type: functional
[11] = target: Sigma non-opioid intracellular receptor 1 (Cavia porcellus, UniProt Q60492); experiment: Displacement of (+)-[3H]pentazocine from guinea pig brain membrane sigma1 receptor by scintillation spectrometric method
Rattus norvegicus [12] = organism: Rattus norvegicus; experiment: Induction of stimulus generalization in Sprague-Dawley rat trained to discriminate DOM assessed as appropriate responding level to training drug by two lever method; type: functional; conditions: for ED50: Rattus norvegicus, Sprague-Dawley
Rattus norvegicus [13] = organism: Rattus norvegicus; experiment: Induction of stimulus generalization in rat trained to discriminate DOM assessed as appropriate responding level to training drug by two lever method; type: functional
[14] = target: Sodium-dependent serotonin transporter (Rattus norvegicus, UniProt P31652); experiment: Activity at SERT in rat synaptosomes assessed as release of [3H]HT after 5 mins by liquid scintillation counting method; type: subcellular
[15] = target: Sodium-dependent dopamine transporter (Rattus norvegicus, UniProt P23977); experiment: Activity at DAT in rat synaptosomes assessed as release of [3H]DA after 5 mins by liquid scintillation counting method; type: subcellular
Rattus norvegicus [16] = organism: Rattus norvegicus; experiment: Induction of stimulus generalization in Sprague-Dawley rat trained to discriminate PMMA assessed as appropriate responding level to training drug by two lever method; type: functional
[17] = target: 5-hydroxytryptamine receptor 2A (Rattus norvegicus, UniProt P14842); experiment: Displacement of [3H]DOB from 5HT2A in Sprague-Dawley rat cortex membranes measured after 15 mins by scintillation counting method; type: cell membranes
[18] = target: 5-hydroxytryptamine receptor 2A (Homo sapiens, UniProt P28223); experiment: Displacement of [125I]DOI from recombinant human 5HT2A expressed in Syrian hamster AV12 cell membranes
Mus musculus = experiment: Anxiolytic-like activity in iv dosed ICR mouse assessed as increase in marbles left uncovered measured after 30 mins by marble burying assay; type: functional; conditions: 0.5 h
[19] = target: Sodium-dependent serotonin transporter (Homo sapiens, UniProt P31645); experiment: Activity at SERT (unknown origin) assessed as release of [3H]HT
[20] = target: Sodium-dependent dopamine transporter (Homo sapiens, UniProt Q01959); experiment: Activity at DAT (unknown origin) assessed as release of [3H]DA
Homo sapiens = organism: Homo sapiens; experiment: Selectivity ratio of EC50 for SERT (unknown origin) assessed as release of [3H]HT to EC50 for DAT (unknown origin) by [3H]DA release assay
Rattus norvegicus [21] = organism: Rattus norvegicus; experiment: Induction of stimulus generalization in rat trained to discriminate PMMA assessed as appropriate responding level to training drug by two lever method; type: functional; conditions: for ED50: Rattus norvegicus
Rattus norvegicus [22] = organism: Rattus norvegicus; experiment: Induction of stimulus generalization in rat trained to discriminate MDMA assessed as appropriate responding level to training drug by two lever method; type: functional; conditions: for ED50: Rattus norvegicus
[23] = Displacement of [3H]ketanserin from rat brain 5HT2 receptor

Sequence of Sodium-dependent serotonin transporter (Rattus norvegicus, UniProt P31652) (P31652 whole entry): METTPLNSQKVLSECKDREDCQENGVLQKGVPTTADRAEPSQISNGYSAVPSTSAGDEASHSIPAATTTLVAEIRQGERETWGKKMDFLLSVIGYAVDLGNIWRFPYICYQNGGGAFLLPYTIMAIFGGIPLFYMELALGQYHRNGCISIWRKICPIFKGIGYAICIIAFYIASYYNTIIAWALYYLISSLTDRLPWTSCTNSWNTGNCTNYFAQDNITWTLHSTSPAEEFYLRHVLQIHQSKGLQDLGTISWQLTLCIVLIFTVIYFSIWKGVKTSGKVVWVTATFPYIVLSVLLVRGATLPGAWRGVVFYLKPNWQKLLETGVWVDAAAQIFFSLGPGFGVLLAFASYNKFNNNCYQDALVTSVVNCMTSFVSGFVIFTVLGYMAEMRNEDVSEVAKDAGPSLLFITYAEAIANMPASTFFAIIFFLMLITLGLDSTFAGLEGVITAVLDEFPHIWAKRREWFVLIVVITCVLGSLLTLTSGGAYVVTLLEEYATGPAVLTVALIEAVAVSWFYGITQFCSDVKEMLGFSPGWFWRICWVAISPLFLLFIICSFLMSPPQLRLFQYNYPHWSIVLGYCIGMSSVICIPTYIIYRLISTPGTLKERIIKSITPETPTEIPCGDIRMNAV
Sequence of Sigma non-opioid intracellular receptor 1 (Q60492 whole entry): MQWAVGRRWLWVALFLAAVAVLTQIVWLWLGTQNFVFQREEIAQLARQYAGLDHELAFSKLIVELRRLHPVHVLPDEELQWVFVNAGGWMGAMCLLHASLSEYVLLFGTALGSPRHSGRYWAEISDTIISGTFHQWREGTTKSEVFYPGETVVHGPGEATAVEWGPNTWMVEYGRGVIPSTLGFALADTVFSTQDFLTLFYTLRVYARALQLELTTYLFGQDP
Sequence of Sodium-dependent dopamine transporter (Rattus norvegicus, UniProt P23977) (P23977 whole entry): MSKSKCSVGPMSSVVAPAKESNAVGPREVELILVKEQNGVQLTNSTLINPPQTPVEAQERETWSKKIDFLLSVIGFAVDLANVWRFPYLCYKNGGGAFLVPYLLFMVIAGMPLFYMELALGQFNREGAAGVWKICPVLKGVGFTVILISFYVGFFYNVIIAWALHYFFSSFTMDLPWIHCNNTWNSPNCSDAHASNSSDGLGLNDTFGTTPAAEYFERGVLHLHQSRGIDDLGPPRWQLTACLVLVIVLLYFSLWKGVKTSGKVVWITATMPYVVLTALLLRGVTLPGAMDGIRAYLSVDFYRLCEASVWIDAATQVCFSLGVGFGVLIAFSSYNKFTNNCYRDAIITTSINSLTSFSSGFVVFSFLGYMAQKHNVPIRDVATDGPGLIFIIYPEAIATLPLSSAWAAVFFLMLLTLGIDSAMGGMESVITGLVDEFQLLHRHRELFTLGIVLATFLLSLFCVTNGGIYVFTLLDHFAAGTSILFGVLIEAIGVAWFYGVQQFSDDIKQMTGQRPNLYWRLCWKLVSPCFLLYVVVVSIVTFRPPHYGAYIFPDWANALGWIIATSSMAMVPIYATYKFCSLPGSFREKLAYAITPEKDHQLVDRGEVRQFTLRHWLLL
Sequence of 5-hydroxytryptamine receptor 2A (Homo sapiens, UniProt P28223) (P28223 whole entry): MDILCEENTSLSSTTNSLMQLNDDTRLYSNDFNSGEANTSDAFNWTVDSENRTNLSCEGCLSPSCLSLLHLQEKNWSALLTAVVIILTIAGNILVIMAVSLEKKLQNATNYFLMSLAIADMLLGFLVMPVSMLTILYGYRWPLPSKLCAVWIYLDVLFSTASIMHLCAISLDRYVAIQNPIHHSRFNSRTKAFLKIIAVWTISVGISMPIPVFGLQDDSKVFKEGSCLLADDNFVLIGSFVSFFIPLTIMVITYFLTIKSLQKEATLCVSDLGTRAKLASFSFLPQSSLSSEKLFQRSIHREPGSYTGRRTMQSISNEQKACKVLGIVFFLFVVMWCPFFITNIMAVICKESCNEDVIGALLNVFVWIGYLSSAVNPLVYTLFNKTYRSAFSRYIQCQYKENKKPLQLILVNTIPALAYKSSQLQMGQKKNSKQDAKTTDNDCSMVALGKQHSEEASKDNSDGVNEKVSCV
Sequence of 5-hydroxytryptamine receptor 2A (Rattus norvegicus, UniProt P14842) (P14842 whole entry): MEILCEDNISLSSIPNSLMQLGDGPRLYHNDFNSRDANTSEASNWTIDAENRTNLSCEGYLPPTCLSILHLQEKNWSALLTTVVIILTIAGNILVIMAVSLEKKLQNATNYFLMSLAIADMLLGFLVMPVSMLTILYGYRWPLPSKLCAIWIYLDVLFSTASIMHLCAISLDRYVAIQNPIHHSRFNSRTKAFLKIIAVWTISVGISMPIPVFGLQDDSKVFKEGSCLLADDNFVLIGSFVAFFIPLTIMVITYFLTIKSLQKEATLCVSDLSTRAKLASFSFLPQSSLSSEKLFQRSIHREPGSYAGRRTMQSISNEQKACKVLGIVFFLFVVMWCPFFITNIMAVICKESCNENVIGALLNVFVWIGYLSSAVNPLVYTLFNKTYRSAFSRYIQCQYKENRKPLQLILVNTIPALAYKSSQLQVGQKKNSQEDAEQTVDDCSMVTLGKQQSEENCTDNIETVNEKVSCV
Sequence of Sodium-dependent dopamine transporter (Homo sapiens, UniProt Q01959) (Q01959 whole entry): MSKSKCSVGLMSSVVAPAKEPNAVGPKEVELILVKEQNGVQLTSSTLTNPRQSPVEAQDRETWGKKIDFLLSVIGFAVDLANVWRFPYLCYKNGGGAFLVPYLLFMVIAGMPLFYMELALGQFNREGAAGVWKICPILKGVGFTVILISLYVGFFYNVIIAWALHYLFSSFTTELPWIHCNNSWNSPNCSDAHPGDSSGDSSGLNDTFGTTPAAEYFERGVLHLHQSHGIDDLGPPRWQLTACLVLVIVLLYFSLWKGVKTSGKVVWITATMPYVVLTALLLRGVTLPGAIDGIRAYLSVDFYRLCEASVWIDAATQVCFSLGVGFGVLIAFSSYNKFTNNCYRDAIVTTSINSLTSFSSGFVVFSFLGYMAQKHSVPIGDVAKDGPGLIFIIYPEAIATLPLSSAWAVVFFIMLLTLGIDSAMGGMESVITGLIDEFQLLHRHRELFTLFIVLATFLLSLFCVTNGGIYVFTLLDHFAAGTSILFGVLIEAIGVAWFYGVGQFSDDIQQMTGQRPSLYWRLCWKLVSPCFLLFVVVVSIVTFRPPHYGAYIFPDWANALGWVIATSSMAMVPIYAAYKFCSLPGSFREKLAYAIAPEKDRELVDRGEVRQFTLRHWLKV
Sequence of Sodium-dependent serotonin transporter (Homo sapiens, UniProt P31645) (P31645 whole entry): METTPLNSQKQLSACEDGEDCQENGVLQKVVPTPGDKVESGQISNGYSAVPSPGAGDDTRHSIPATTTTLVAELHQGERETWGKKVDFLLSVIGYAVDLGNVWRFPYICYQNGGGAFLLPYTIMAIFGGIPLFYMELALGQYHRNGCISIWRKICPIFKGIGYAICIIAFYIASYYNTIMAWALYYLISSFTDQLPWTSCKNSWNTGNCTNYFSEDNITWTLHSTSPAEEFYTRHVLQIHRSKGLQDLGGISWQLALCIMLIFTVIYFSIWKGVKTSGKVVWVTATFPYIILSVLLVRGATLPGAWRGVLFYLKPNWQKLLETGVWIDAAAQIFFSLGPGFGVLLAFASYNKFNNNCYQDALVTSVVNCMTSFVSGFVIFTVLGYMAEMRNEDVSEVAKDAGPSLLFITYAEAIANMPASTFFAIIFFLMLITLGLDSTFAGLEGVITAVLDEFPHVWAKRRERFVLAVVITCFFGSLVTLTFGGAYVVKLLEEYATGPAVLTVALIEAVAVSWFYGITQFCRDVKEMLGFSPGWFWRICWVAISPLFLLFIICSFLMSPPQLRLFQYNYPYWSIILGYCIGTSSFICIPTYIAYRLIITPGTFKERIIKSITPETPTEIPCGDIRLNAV

Question: For `C[C@H](N)Cc1ccccc1` [DEXTROAMPHETAMINE], which EC50 [1] is on record?
Answer: 7 nM

Question: What about the ED50 (Rattus norvegicus [2]) of the same compound?
Answer: 0.28 mg/kg

Question: What about the Ki [3] of the same compound?
Answer: 46000 nM

Question: And the ED50 (Rattus norvegicus [4])?
Answer: 0.4 mg/kg

Question: What about the Activity (Rattus norvegicus [5]) of the same compound?
Answer: 20 - 80%

Question: What about the Activity (Rattus norvegicus [6]) of the same compound?
Answer: 20 - 80%

Question: What about the ED50 (Rattus norvegicus [7]) of the same compound?
Answer: 0.44 mg/kg

Question: And the ED50 (Rattus norvegicus [8])?
Answer: 0.23 mg/kg

Question: And the ED50 (Rattus norvegicus [9])?
Answer: 0.2 mg/kg

Question: And the ED50 (Rattus norvegicus [10])?
Answer: 0.62 mg/kg

Question: Which Ki [11] does the source give for `CCCCCCN(C)CCc1ccccc1` here?
Answer: 48 nM

Question: Which results are given for `COc1cc(CC(C)N)c(OC)cc1C` (stereo not drawn) [DOM]?
Answer: ED50 (Rattus norvegicus [12]): 0.4 mg/kg; ED50 (Rattus norvegicus [6]): 0.4 mg/kg; ED50 (Rattus norvegicus [13]): 0.44 mg/kg

Question: Which EC50 [14] does the source give for `CC[C@H](N)Cc1c[nH]c2ccccc12` here?
Answer: 20 nM

Question: What about the EC50 [15] of the same compound?
Answer: 64 nM

Question: What about the EC50 [1] of the same compound?
Answer: > 10000 nM

Question: What about the ED50 (Rattus norvegicus [12]) of the same compound?
Answer: 2.7 mg/kg

Question: And the Activity (Rattus norvegicus [4])?
Answer: 53%

Question: What about the ED50 (Rattus norvegicus [5]) of the same compound?
Answer: 2 mg/kg

Question: And the ED50 (Rattus norvegicus [16])?
Answer: 1.4 mg/kg

Question: What about the ED50 (Rattus norvegicus [6]) of the same compound?
Answer: 1.3 mg/kg

Question: With `COc1cc(OC)c(OC)cc1CC(C)N` (stereo not drawn) as the compound, how does the Ki [17] read?
Answer: 81 nM

Question: And the Ki [18]?
Answer: 57.9 nM

Question: Which ED50 (Mus musculus) does the source give for `CN1C(=O)CN=C(c2ccccc2)c2cc(Cl)ccc21` [DIAZEPAM] here?
Answer: 0.26 mg/kg

Question: For `c1ccc(CCCCCN2CCCC(c3ccccc3)C2)cc1` (stereo not drawn), which Ki [11] is on record?
Answer: 0.14 nM

Question: For `O=C1CC2(CCCC2)CC(=O)N1CCCCN1CCN(c2ncccn2)CC1` [BUSPIRONE], which ED50 (Mus musculus) is on record?
Answer: 2.36 mg/kg

Question: With `CCCNC(C)Cc1cc(OC)c(Br)cc1OC` (stereo not drawn) as the compound, how does the Ki [18] read?
Answer: 88.5 nM

Question: For `CNC(C)C(=O)c1ccc(C)cc1` (stereo not drawn) [MEPHEDRONE], which EC50 [19] is on record?
Answer: 118 nM

Question: And the EC50 [20]?
Answer: 49.1 nM

Question: What about the Ratio EC50 (Homo sapiens) of the same compound?
Answer: 2.5

Question: What does the source list for `C[C@@H](N)Cc1ccc2c(c1)OCO2`?
Answer: EC50 [14]: 310 nM; EC50 [15]: 900 nM; EC50 [1]: 290 nM; ED50 (Rattus norvegicus [21]): 1.5 mg/kg

Question: For `CN[C@@H](C)C(=O)c1ccccc1`, which EC50 [14] is on record?
Answer: 1770 nM

Question: And the EC50 [15]?
Answer: 14.8 nM

Question: And the EC50 [1]?
Answer: 13.1 nM

Question: And the ED50 (Rattus norvegicus [2])?
Answer: 0.21 mg/kg

Question: What about the ED50 (Rattus norvegicus [7]) of the same compound?
Answer: 0.18 mg/kg

Question: And the ED50 (Rattus norvegicus [8])?
Answer: 0.11 mg/kg

Question: Which results are given for `COc1ccc(C[C@H](C)N)cc1OC`?
Answer: ED50 (Rattus norvegicus [22]): 6.1 mg/kg; ED50 (Rattus norvegicus [21]): 2.6 mg/kg

Question: Which Ki [11] does the source give for `c1ccc(CCCCCN2CCCCC2Cc2ccccc2)cc1` (stereo not drawn) here?
Answer: 0.08 nM

Question: What does the source list for `CC[C@@H](N)Cc1c[nH]c2ccccc12`?
Answer: EC50 [14]: 68 nM; EC50 [15]: 900 nM; EC50 [1]: > 10000 nM; Activity (Rattus norvegicus [12]): 33%; ED50 (Rattus norvegicus [4]): 7.8 mg/kg; ED50 (Rattus norvegicus [5]): 1.3 mg/kg; ED50 (Rattus norvegicus [16]): 1.6 mg/kg; ED50 (Rattus norvegicus [6]): 1.6 mg/kg

Question: Which ED50 (Rattus norvegicus [10]) does the source give for `CC(N)C(=O)c1ccccc1` (racemic) [DEALKYLATED DIETHYLPROPION] here?
Answer: 0.72 mg/kg

Question: Which results are given for `C[C@H](N)Cc1ccc2c(c1)OCO2`?
Answer: EC50 [14]: 100 nM; EC50 [15]: 98 nM; EC50 [1]: 50 nM; ED50 (Rattus norvegicus [21]): 0.7 mg/kg

Question: For `COc1cc(CC(C)N)c(OC)cc1I` (stereo not drawn), which Ki [17] is on record?
Answer: 0.7 nM

Question: What does the source list for `CC(N)Cc1ccc2c(c1)OCO2` (racemic) [TENAMFETAMINE]?
Answer: EC50 [14]: 160 nM; EC50 [15]: 190 nM; EC50 [1]: 108 nM; ED50 (Rattus norvegicus [21]): 0.5 mg/kg

Question: With `CNC(C)Cc1ccc2c(c1)OCO2` (racemic) [MIDOMAFETAMINE] as the compound, how does the EC50 [14] read?
Answer: 72 nM

Question: And the EC50 [15]?
Answer: 278 nM

Question: And the EC50 [1]?
Answer: 110 nM

Question: And the ED50 (Rattus norvegicus [21])?
Answer: 1.32 mg/kg

Question: For `CCNC(C)Cc1cccc(C(F)(F)F)c1` (stereo not drawn) [FENFLURAMINE], which EC50 [1] is on record?
Answer: 740 nM

Question: Which ED50 (Rattus norvegicus [22]) does the source give for `COc1ccc(C[C@@H](C)N)cc1OC` here?
Answer: 5.4 mg/kg

Question: And the ED50 (Rattus norvegicus [21])?
Answer: 3 mg/kg

Question: With `CN[C@H](C)Cc1ccc(OC)cc1` as the compound, how does the EC50 [14] read?
Answer: 134 nM

Question: And the EC50 [15]?
Answer: 1600 nM

Question: What about the EC50 [1] of the same compound?
Answer: > 14000 nM

Question: With `C[C@@H](Cc1ccccc1)NCCCCCc1ccccc1` as the compound, how does the Ki [11] read?
Answer: 0.9 nM

Question: For `C=CCN1CC[C@]2(C)c3cc(O)ccc3C[C@H]1[C@H]2C`, which Ki [3] is on record?
Answer: 150 nM

Question: What does the source list for `COc1cccc(C[C@H](C)N)c1` [(S)-M-METHOXYAMPHETAMINE]?
Answer: Activity (Rattus norvegicus [22]): <20%; Activity (Rattus norvegicus [21]): 20 - 80%

Question: Which EC50 [14] does the source give for `CN[C@@H](C)Cc1ccc(OC)cc1` here?
Answer: 41 nM

Question: What about the EC50 [15] of the same compound?
Answer: 1000 nM

Question: And the EC50 [1]?
Answer: 147 nM

Question: What about the ED50 (Rattus norvegicus [21]) of the same compound?
Answer: 0.3 mg/kg

Question: What does the source list for `C[C@H](N)Cc1c[nH]c2ccccc12`?
Answer: Ki [23]: 2500 nM; ED50 (Rattus norvegicus [13]): 1.64 mg/kg

Question: With `c1ccc(CCCCCN2CCCCC2)cc1` as the compound, how does the Ki [11] read?
Answer: 0.38 nM
